# Experimental data reported in paper PMC12809571, “Contribution to the Chemotherapy of Human Trypanosomiasis: Design, Synthesis, and Biological Evaluation of Dimeric 2‑Nitroimidazoles against Trypanosoma cruzi Amastigotes and Bloodstream Trypanosoma brucei” (ACS Omega, 2025).
# Like-named read-outs stand apart in the source and are kept apart here.
# Tests used:
# [1] = test system: amastigotes of T. cruzi (Tulahuen C2C4 LacZ strain); test: Trypanocidal activity against T. cruzi amastigotes (CPRG, infected LLC-MK2); type: cell-based, Trypanosoma cruzi; conditions: intracellular amastigotes in LLC-MK2, 120 h; for IC50: Trypanosoma cruzi, TULAHUEN, read-out: Activity against Amastigotes of T. cruzi (Tulahuen C2C4lacZ) IC50
# Protocol: The antiparasitic activity assays used amastigotes of the Tulahuen C2C4-LacZ strain of T. cruzi. Amastigotes and trypomastigotes were cultured by successive reinfections in LLC-MK2 cell monolayers in DMEM supplemented with 5% FBS and incubated at 37 °C with 5% CO2. Trypomastigotes were collected from the culture supernatant between days 5 and 10 after infection and separated from nonadhered cells by differential centrifugation.
# In a flat 96-well plate, a suspension of 1 × 10^4 LLC-MK2 cells (ATCC) in DMEM supplemented with 2% FBS was added. Cells were incubated at 37 °C with 5% CO2 for 4 h to promote adhesion, then washed with PBS to remove nonadherent cells. A suspension containing 1.5 × 10^5 T. cruzi trypomastigote forms of the Tulahuen C2C4 LacZ strain was added to the cells, followed by incubation at 37 °C with 5% CO2 for 20 h to establish infection. Noninternalized parasites were removed with three successive PBS washes, then treatment with serial dilutions (50–0.08 μM) of compounds in triplicate, prediluted in DMEM with 2% FBS. Controls included untreated cells, vehicle (0.2% v/v DMSO), and blank (no parasite added). Benznidazole, in serial dilutions, served as a positive control. After 5 days (120 h), 30 μL of a 0.5 mM CPRG solution in PBS was added along with 0.9% v/v Igepal CA-630. After a 2h incubation, absorbance was measured at 570 nm using a plate reader.
# [2] = test system: bloodstream trypomastigotes of T. b. brucei; test: Trypanocidal activity against T. brucei brucei bloodstream (MTS); type: cell-based, Trypanosoma brucei brucei
# Protocol: In a transparent 96-well plate, the parasites were incubated for 48 h at a concentration of 5 × 10^4 parasites per well, for 24 h, a concentration of 10 × 10^5 parasites per well was used in Hirumi’s Modified Iscove’s (HMI-9) medium supplemented with 10% FBS and a final 100 μL/well volume. Treatment was carried out using serial dilutions of the compounds (100–0.02 μM) and fexinidazole as the reference drug, both in triplicate. Triplicates of untreated parasites (live control), parasites treated with DMSO 0.2% v/v (vehicle), and wells without parasites (blank control) served as experimental controls. After incubation, 20 μL of MTS solution (5% PMS) was added, and the sample was incubated for another 2 h. Once the plate was visibly stained–due to the soluble formazan salt produced by the action of viable parasites from the reduction of MTS–the absorbance was measured at 490 nm using a plate reader.
# HEK-293 cells = test: Cytotoxicity against HEK-293 cells (MTT); type: cell-based
# Protocol: (§1) Mammalian lineage cells were used to assess the cytotoxicity of the tested compounds. LLC-MK2, HEK-293, and RAW-264 cells (ATCC) were cultured in Dulbecco’s Modified Eagle’s Medium (DMEM) supplemented with 5% fetal bovine serum (FBS) and incubated at 37 °C in 5% CO2, with passages every 4–5 days. Cells were detached from the monolayer using a solution containing 0.25% w/v trypsin and 0.04% EDTA.
# In a 96-well transparent plate, a suspension of 1 × 10^4 HEK-293 cells (ATCC) in DMEM medium supplemented with 10% FBS was added. Cells were incubated at 37 °C (5% CO2) for 20 h and then washed with PBS to remove nonadherent cells. The cells were treated with serial dilutions of the hybrids in triplicate (125–0.2 μM), prediluted in DMEM containing 10% FBS. The experiment included untreated controls, vehicle (0.2% v/v DMSO), and a blank (no added cells). […] Then, 20 μL of 3.0 mM MTT saline was added, followed by an additional 1.5 h of incubation. The supernatant was removed, and the MTT formazan crystals were dissolved by adding 120 μL of DMSO per well. After incubating for 1.5 h in the dark at 37 °C, the absorbance was measured at 570 nm using a plate reader.
# [3] = test system: amastigotes of T. cruzi (Tulahuen C2C4 LacZ strain); test: Trypanocidal activity against T. cruzi amastigotes (CPRG, infected LLC-MK2); type: cell-based, Trypanosoma cruzi
# [4] = Cytotoxicity against LLC-MK2 cells (MTT); type: cell-based; conditions: rhesus monkey
# Protocol: as §1
# In a flat 96-well plate, a suspension of 1 × 10^4 LLC-MK2 cells (ATCC) in DMEM supplemented with 2% FBS was added. Cells were incubated at 37 °C (5% CO2) for 20 h, then washed with phosphate-buffered saline (PBS) to remove nonadherent cells. Cells were treated with serial dilutions (200–2 μM) of compounds in triplicate, prediluted in DMEM with 2% FBS. Untreated, vehicle (0.2% v/v DMSO), and blank (no cells added) controls were included. After 120 h of incubation, the supernatant was removed, the cell monolayer washed with PBS, and the culture medium refreshed. Then, 20 μL of a 3.0 mM MTT salt solution was added, followed by two additional hours of incubation. The supernatant was removed again, and the MTT formazan crystals were dissolved by adding 120 μL of DMSO per well. After 1.5 h of dark incubation at 37 °C to dissolve the crystals, the absorbance was measured at 570 nm using a plate reader.
# RAW-264.7 cells = test: Cytotoxicity against RAW-264.7 cells (MTT); type: cell-based
# Protocol: as §1
# In a 96-well transparent plate, a suspension of 1 × 10^4 RAW-264.7 cells (ATCC) in Roswell Park Memorial Institute (RPMI) medium supplemented with 10% FBS was added. Cells were incubated at 37 °C (5% CO2) for 20 h, then washed with PBS to remove nonadherent cells. Cells were treated with serial dilutions of the hybrids in triplicate (125–0.2 μM), prediluted in RPMI supplemented with 10% FBS. Controls included untreated samples, vehicle (0.2% v/v DMSO), and blank wells (no cells). […] Then, 20 μL of 3.0 mM MTT saline was added, followed by an additional 1.5 h of incubation. The supernatant was removed again, and the MTT formazan crystals were dissolved by adding 120 μL of DMSO per well. After incubating for 1.5 h in the dark at 37 °C to dissolve the crystals, absorbance was measured at 570 nm using a plate reader.
# Chagas disease = conditions: chronic phase of Chagas disease; cited from earlier work
# [5] = Trypanosoma brucei, 48 h; read-out: T. b. brucei 48 h IC50
# [6] = Homo sapiens, HEK293, 48 h; read-out: HEK-293 48 h IC50
# [7] = Mus musculus, RAW264.7, 48 h; read-out: RAW-264.7 48 h IC50
# [8] = Trypanosoma brucei, 48 h, read-out: T. b. brucei 48 h IC50
# [9] = Homo sapiens, HEK293, 48 h, read-out: HEK-293 48 h IC50
# [10] = Mus musculus, RAW264.7, 48 h, read-out: RAW-264.7 48 h IC50
Compound,IC50 [1] [µM],SI (HEK-293) = (IC50 HEK-293)/(IC50 T. brucei brucei) [2],SI (RAW-264.7) = (IC50 RAW-264.7)/(IC50 T. brucei brucei) [2],"IC50 [2, 5] [µM]",IC50 (HEK-293 cells; [6]) [µM],SI (LLC-MK2) = (IC50 LLC-MK2)/(IC50 T. cruzi) [3],IC50 at 120 h [4] [µM],IC50 (RAW-264.7 cells; [7]) [µM],Activity against Amastigotes of T. cruzi (Tulahuen C2C4lacZ) IC50 [1],"IC50 [2, 8] [µM]",IC50 (HEK-293 cells; [9]) [µM],IC50 (RAW-264.7 cells; [10]) [µM],cure rate (Chagas disease),IC50 at 120 h ([4]; LLC-MK2 cells) [µM]
"O=[N+]([O-])c1nccn1CCCCCCCCn1ccnc1[N+](=O)[O-] [Compound 9, 1,8-Bis(2-nitro-1H-imidazol-1-yl)octane]",1.19 ± 0.31,2.79,8.98,7.98 ± 3.12,22.3 ± 1.08,>84.03,> 100,71.7 ± 3.67,,,,,,
"O=[N+]([O-])c1nccn1CCCCCCn1ccnc1[N+](=O)[O-] [Compound 8, 1,6-Bis(2-nitro-1H-imidazol-1-yl)hexane]",0.59 ± 0.01,16.27,>23.27,5.37 ± 3.15,87.4 ± 1.2,>338.98,> 200,> 125,submicromolar range,,,,,
"O=[N+]([O-])c1nccn1CCCn1ccnc1[N+](=O)[O-] [Compound 5, 1,3-Bis(2-nitro-1H-imidazol-1-yl)propane]",3.2 ± 0.58,,,,,>62.50,> 200,,,16.4 ± 2.65,> 125,> 125,,
"O=[N+]([O-])c1nccn1CCCCn1ccnc1[N+](=O)[O-] [Compound 6, 1,4-Bis(2-nitro-1H-imidazol-1-yl)butane]",2.66 ± 0.78,>5.02,>5.02,24.9 ± 7.89,> 125,>75.18,> 200,> 125,,,,,,
"O=[N+]([O-])c1nccn1CCCCCCCCCCCCn1ccnc1[N+](=O)[O-] [Compound 11, 1,12-Bis(2-nitro-1H-imidazol-1-yl)dodecane]",0.61 ± 0.13,57.01,>69.83,1.79 ± 0.63,102 ± 8.54,85.88,52.4 ± 4.13,> 125,submicromolar range,,,,,
"O=C(Cn1ccnc1[N+](=O)[O-])NCc1ccccc1 [Benznidazole, benznidazole, reference compound]",1.5 ± 0.33,,,,,>133.33,,,,,,,less than 20%,> 200
"O=[N+]([O-])c1nccn1CCCCCn1ccnc1[N+](=O)[O-] [Compound 7, 1,5-Bis(2-nitro-1H-imidazol-1-yl)pentane]",1.38 ± 0.24,>12.42,>12.42,10.1 ± 2.47,> 125,>144.9,> 200,> 125,,,,,,
"O=[N+]([O-])c1ncc[nH]1 [Azomycin (3), 2-nitro-1H-imidazole, reference compound]",5.74 ± 1.89,,,,,>87.10,> 500,,,,,,,
"O=[N+]([O-])c1nccn1CCCCCCCCCCn1ccnc1[N+](=O)[O-] [Compound 10, 1,10-Bis(2-nitro-1H-imidazol-1-yl)decane]",0.48 ± 0.11,1.67,4.67,21 ± 1.9,35.1 ± 5.31,>208.33,> 100,98.4 ± 9.39,submicromolar range,,,,,
"CSc1ccc(OCc2ncc([N+](=O)[O-])n2C)cc1 [Fexinidazole, fexinidazole, reference compound]",,,,1.2 ± 0.51,,,,,,,,,,
"O=[N+]([O-])c1nccn1CCn1ccnc1[N+](=O)[O-] [Compound 4, 1,2-Bis(2-nitro-1H-imidazol-1-yl)ethane]",9.13 ± 0.93,>5.83,>5.83,,,>21.90,> 200,,,21.4 ± 1.15,> 125,> 125,,
CC1CS(=O)(=O)CCN1/N=C/c1ccc([N+](=O)[O-])o1 (centres unmarked) [nifurtimox],,,,,,,,,,,,,less than 20%,
